From BindingDB's records for doi:10.1021/jm061268p (University of Arizona, 2007) come the findings set out here.

pIC50: −log10 of the molar value.

For this test, the target named is T1, Cholecystokinin receptor type A (Homo sapiens, UniProt P32238).
T1 sequence (P32238 whole entry): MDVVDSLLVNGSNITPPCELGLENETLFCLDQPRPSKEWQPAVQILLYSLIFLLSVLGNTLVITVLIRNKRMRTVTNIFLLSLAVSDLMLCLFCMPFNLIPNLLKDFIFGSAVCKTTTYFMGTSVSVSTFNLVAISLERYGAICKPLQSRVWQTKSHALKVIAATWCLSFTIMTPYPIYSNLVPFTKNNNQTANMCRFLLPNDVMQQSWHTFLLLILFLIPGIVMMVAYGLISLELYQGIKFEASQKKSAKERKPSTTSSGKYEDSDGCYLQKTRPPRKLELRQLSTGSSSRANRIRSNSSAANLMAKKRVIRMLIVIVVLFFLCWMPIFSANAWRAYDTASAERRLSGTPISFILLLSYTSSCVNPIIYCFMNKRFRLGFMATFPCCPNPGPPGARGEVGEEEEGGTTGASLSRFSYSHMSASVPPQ
Description: Displacement of [125I]CCK8-SO3 from human CCK1 receptor expressed in HEK293 cells. On the technique in general: Displacement assays read how much labelled ligand stays bound in the presence of the test substance.

By pIC50 is commonly meant the IC50 on a negative log10 scale, so that one unit is a factor of ten. Low values mean a high IC50, high ones a low IC50. Consider `CCCC[C@@H](NC(=O)[C@H](Cc1c[nH]c2ccccc12)NC(=O)OC(C)(C)C)C(=O)N[C@H](CC(=O)O)C(=O)N[C@H](Cc1ccccc1)C(=O)NNC(=O)[C@H](Cc1ccccc1)NC(=O)CNC(=O)[C@@H](C)NC(=O)[C@@H](N)Cc1ccc(O)cc1` [H-Tyr-D-Ala-Gly-Phe-NH-NH-D-Phe-D-Asp-D-Nle-Trp-Boc], for which the negative-log IC50 (pIC50) was 8.30. For the compound `CCCC[C@H](NC(=O)[C@H](CC(=O)O)NC(=O)[C@@H](N)Cc1ccccc1)C(=O)N[C@H](Cc1c[nH]c2ccccc12)C(=O)NNC(=O)[C@H](Cc1ccccc1)NC(=O)CNC(=O)[C@@H](C)NC(=O)[C@@H](N)Cc1ccc(O)cc1` [H-Tyr-D-Ala-Gly-Phe-NH-NH-D-Trp-Nle-Asp-Phe-H], the pIC50 was 8.29.

As for `CCCC[C@@H](NC(=O)[C@@H](CC(=O)O)NC(=O)[C@H](N)Cc1ccccc1)C(=O)N[C@@H](Cc1c[nH]c2ccccc12)C(=O)NNC(=O)[C@H](Cc1ccccc1)NC(=O)CNC(=O)[C@@H](C)NC(=O)[C@@H](N)Cc1ccc(O)cc1` [H-Tyr-D-Ala-Gly-Phe-NH-NH-Trp-D-Nle-D-Asp-D-Phe-H], the pIC50 is 8.24. This pIC50 and that of the compound before are within 0.2 log units of each other.
